Read-outs that look alike come from different tables or passages of the source.
Tests used:
[1] = for Leaching of EDDS, specimen with end sealing / Leaching of EDDS, specimen without end sealing: after one week, mean ± SD
Source text: The aim of this example is to show the leaching of EDDS in sea water, as well as the effect of the pH in sea water on the leaching.
Wood specimens were produced by the Danish Technological Institute, and made of sap wood of Pinus sylvestris in the dimension: 15×25×50 mm^3.
The impregnating solution used was an aqueous solution of 5% Octaquest® E30 (Innospec Limited, contains a 30% solution of trisodium-EDDS in water), 5% sodium carbonate and 5% ethanol. pH was adjusted to 4.5 with hydrochloric acid.
Three different sea water solutions were prepared using artificial sea water salt mix (Tropic Marin® Sea Salt) at half the recommended concentration (15 g/L corresponding to a specific gravity of 1010 kg/m^3), normal concentration (30 g/L corresponding to a specific gravity of 1019 kg/m^3) and half concentration with pH adjusted to 6. Specific gravity of sea water in the oceans range between 1020 and 1030 kg/m^3. For each solution six containers were prepared each containing five specimens. Half of the specimens in each solution were end sealed at both ends using Conclad 300 2-K membrane (product no. 5305A, Condor Kemi A/S, Denmark). The end seal was applied to evaluate the radial leaching of the impregnating agent in order to simulate the surfaces exposed in harbour piers.
The specimens were placed in the containers and 500 ml of sea water solution was added to each container.
After one week the water was collected and analysed for EDDS content by HPLC-UV; detection at 254 nm. The method used involved a reverse phase column and online complexing of EDDS with Cu(II)-ions. Quantifications were made from external standards (reference material used was “−30% Na3EDDS in water” from Fluka).

marine woodborers = test: Protective effectiveness against marine borers, EN 275 harbour exposure; format: in vivo, shipworm; conditions: 6 months; compared to control subjects
Experimental: The guidelines and recommendations in EN 275: 1992—Wood preservatives—Determination of the protective effectiveness against marine borers were followed unless otherwise stated.
Wood specimens were made of sapwood of Pinus sylvestris in the dimensions: 200×75×25 mm3, with a hole ø25 mm in the centre. The specimens were produced by the Danish Technological Institute.
The biocide-impregnating solution was prepared in different compositions according to Table 4. pH was adjusted with hydrochloric acid, and 10 specimens were used for each composition of biocide-impregnating solution and each harbour exposure site.
The specimens were attached to test racks and placed in two different harbours in Denmark: Skagen (northern part of Jutland) and Rudkøbing (Langeland) on 26 and 24 Apr. 2007, respectively (FIG. 1). The specimens were collected again ˜6 months later on 23 and 25 Oct. 2007, respectively.
The attack by marine borers was evaluated by cutting up the specimen in five pieces and recording the number of borers present and the percentage of the area which they had attacked.

## O=C(O)C[C@H](NCCN[C@@H](CC(=O)O)C(=O)O)C(=O)O [EDDS, (S,S)-ethylenediamine-disuccinate]
[1]; all sea water solutions, in seven days
  Leaching: about 30%
[1]; all three types of sea water
  Leaching from end sealed specimens compared with specimens without end sealing: significantly lower
[1]; sea water normal conc.
  Leaching of EDDS, specimen with end sealing: 26.48 ± 0.92%
  Leaching of EDDS, specimen without end sealing: 33.56 ± 0.62%
[1]; sea water ½ conc. pH 6
  Leaching of EDDS, specimen with end sealing: 30.07 ± 0.70%
  Leaching of EDDS, specimen without end sealing: 36.14 ± 0.89%
[1]; sea water ½ conc.
  Leaching of EDDS, specimen with end sealing: 32.08 ± 1.01%
  Leaching of EDDS, specimen without end sealing: 34.08 ± 0.59%
Marine woodborers
  Effectiveness against attack of shipworm: effective

Reference: patent US20150119442A1, “Biocide agents against marine woodborers” (Teredo Marine Protection ApS, priority 2008, published 2015)
